{
  "source": "patent US20070082910A1",
  "about": "“Specific nad(p)h oxidase inhibitor” (Mitsubishi Pharma Corporation, priority 2003, published 2007)",
  "key": {"NAD(P)H oxidase": {"tested_on": "NAD(P)H oxidase", "test": "IL-8 production inhibitory effect in HUVEC cultured with 44 mM glucose", "type": "cell-based, human", "conditions": "for inhibitory rate (%) of IL-8 production: 8 days", "protocol": "NAD(P)HOxidase Inhibitory Effect (Method)\n44 mM glucose was added to Human Umbilical Vein Endothelial Cells (Bio Whittaker, hereinafter to be indicated as “HUVEC”), and cells were cultured for 8 days. Then, a lysis buffer containing a surfactant, Triton-X Nonidet P-40, was added, and interleukin-8 (hereinafter to be indicated as “IL-8”) in the cell lysate, which had been produced by NAD(P)H oxidase was measured by an enzyme-linked […]. The test compound was added one day before glucose addition.\nThe inhibitory rate was calculated from the following formula: inhibitory rate (%)=100−[(A−C)/(B−C)]×100\nwherein A is IL-8 production of a cell cultured in the presence of 44 mM glucose with addition of the test compound, B is IL-8 production of a cell cultured in the presence of 44 mM glucose without addition of the test compound, and C is IL-8 production of a cell cultured in the absence of 44 mM glucose and the test compound. The IC50 value was calculated from the dose-effect line drawn by the least squares method based on the obtained inhibitory rate."}, "[1]": {"tested_on": "rabbit chronic myocardial infarction (heart failure) model", "test": "Rabbit chronic myocardial infarction (heart failure) model", "type": "in vivo", "protocol": "Male NZW rabbits (Japan SLC) were fixed in the dorsal position and subjected to thoracotomy with pentobarbital anesthesia. A silk thread (No. 4) was applied to the basal part of the left coronary artery, a polyethylene tube (length 1 cm) was further applied and the left coronary artery was ligated using a thread. After 2 hr from the ligation, the thread on the polyethylene tube was cut to reperfusion. At 2 hr from the reperfusion, compound A (1 mg/kg) was administered once, and administered once a day for 12 weeks. After 12 weeks, an excess pentobarbital was administered, the heart was removed, and the weight thereof and the thickness of the left ventricle center wall were measured.\nThe compound was evaluated by the mortality rate, heart weight and thickness of left ventricle."}, "[2]": {"tested_on": "NAD(P)H oxidase in diabetic rat aorta", "test": "Aorta NAD(P)H oxidase inhibitory effect, test compound added to aorta ring specimen in vitro", "type": "biochemical", "conditions": "for chemiluminescence (×10^5 RLU/wet weight of aorta): mean ± standard error", "protocol": "This ring specimen was preincubated in Krebs-Hepes buffer containing the test compound (compound A, compound B or DPI (SIGMA)) at 37° C. for 10 min, and then transferred to Krebs-Hepes buffer containing 0.25 mM lucigenin. […] The total value of chemiluminescence was calculated from AUC of the curve drawn by plotting the chemiluminescence value (vertical axis) relative to the measurement time (horizontal axis). The obtained chemiluminescence value was divided by the wet weight of the vascular ring specimen and standardized to the superoxide anion production per aorta unit weight."}, "[3]": {"tested_on": "NAD(P)H oxidase in diabetic rat aorta", "test": "NAD(P)H oxidase activity (superoxide anion production, lucigenin chemiluminescence) in aorta of streptozotocin diabetic rats after oral administration", "type": "in vivo", "conditions": "for inhibitory rate (%), NAD(P)H oxidase in diabetic rat aorta: once a day for 3 days", "protocol": "Streptozotocin (40 mg/kg) dissolved in 0.05 M citric acid buffer (pH 4.5) was administered into the tail vein of male Wistar rats (Japan SLC) to prepare diabetic rats. At 1 week to 8 weeks from the intravenous injection of streptozotocin, blood was drawn from the tail vein using a capillary treated with heparin, which was immediately cooled with ice and centrifuged at 3000 rpm, 15 min, 4° C. to give serum. The blood glucose level was measured by enzyme assay using a glucose measurement kit “GLU neo sinotest” (sinotest) and a microplate reader (SPECTRA MAX250, Molecular Devices).\nThe NAD(P)H oxidase activity was measured by the following method, which was modified by the method of the David. G. Harrison et al. (J. Clin. Invest. 91, 2546-2551, 1993), at 4 days from the start of the test, with superoxide anion production in aorta as an index.\nTo be specific, normal rat or diabetic rat free of the above-mentioned treatment was exsanguinated from the abdominal aorta, their thoracic aorta was removed. The removed thoracic aorta was immersed in Krebs-Hepes buffer and marginal tissues were removed to prepare an about 5 mm ring specimen. This ring specimen was preincubate in Krebs-Hepes buffer at 37° C. for 10 min and transferred to Krebs-Hepes buffer containing 0.25 mM lucigenin (SIGMA). 500 μM NADH (SIGMA) was added and chemiluminescence value (chemiluminescence: unit RLU: relative light units) was measured using a luminometer (MULTI-BIOLUMAT LB9505C, Warrack.Berthold) at 37° C. for 10 min. The total value of chemiluminescence was calculated from the area under the curve (hereinafter to be referred to as “AUC”) drawn by plotting the chemiluminescence value (vertical axis) relative to the measurement time (horizontal axis). The measured total value of chemiluminescence was divided by the wet weight of the vascular ring specimen and standardized to the superoxide anion production per aorta unit weight.\nThe inhibitory rate (%) was calculated from the following formula: inhibitory rate (%)=100−[(A−C)/(B−C)]×100\nwherein A was the standardized value of chemiluminescence of diabetic rat administered with the test compound, B was the standardized value of chemiluminescence of diabetic rat without administration of the test compound, and C was the standardized value of chemiluminescence of normal rat without administration of the test compound."}, "[4]": {"tested_on": "rabbit myocardial infarction model", "test": "Rabbit ischemia-reperfusion myocardial infarction model", "type": "in vivo", "conditions": "1 mg/kg 1 hr before ligation; normal group as 100%", "description": "Male NZW rabbits (Japan SLC) were fixed in the dorsal position and subjected to thoracotomy with pentobarbital anesthesia. A silk thread (No. 4) was applied to the proximal left coronary artery, a polyethylene tube (length 1 cm) was further applied and the left coronary artery was ligated using a thread. After 2 hr from the ligation, the thread on the polyethylene tube was cut to reperfusion. After 4 hr from the reperfusion, the proximal coronary artery was ligated using a silk thread (No. 4), and 3% Evans blue solution (1 mL/kg) was intravenously administered. After 5 min, an excess pentobarbital was administered and the heart and aorta were removed. The heart was cut into a 3 mm-wide annular shape, and the left ventricle area and ischemia region (Evans blue unstained region) were traced.\nAfter incubation in 1% TTC solution for 30 min, an infarction focus (TTC unstained region) was traced. Compound A (1 mg/kg) was administered 1 hr before the ligation.\nThe ratios of the ischemic region and infarction focus to the left ventricle area were calculated. […]\nThis suspension was centrifuged at 3000 rpm for 10 min, and the supernatant (8 mL) was centrifuged at 15000 rpm for 15 min. The obtained supernatant was mixed with phosphate buffer containing o-dianisidine dihydrochloride, kept at 25° C. for 30 min, the absorbance (OD460) was measured, and the myeloperoxidase (MPO) activity was determined. […]"}, "[5]": {"conditions": "1 mg/kg once a day for 12 weeks"}, "[6]": {"conditions": "1 mg/kg once a day, deaths/animals"}, "[7]": {"conditions": "0.1 μM added to aorta ring in vitro"}, "[8]": {"conditions": "1 μM added to aorta ring in vitro"}},
  "note": "Marks after values point to notes of the source that are not given here.",
  "data": [
    {"molecule": "C[C@@H](Nc1nnc(-c2ccccc2)c2ccccc12)C1CCCCC1.O=C(O)/C=C\\C(=O)O", "note": "[compound A]", "values": [
      {"measurement": "IC50", "setting": "NAD(P)H oxidase; from dose-effect line by least squares", "result": 6.3, "unit": "nM"},
      {"measurement": "inhibitory rate (%) of IL-8 production", "setting": "NAD(P)H oxidase; test compound concentration 0.01 μM", "result": 39.5, "unit": "%"},
      {"measurement": "inhibitory rate (%) of IL-8 production", "setting": "NAD(P)H oxidase; test compound concentration 0.1 μM", "result": 59.8, "unit": "%"},
      {"measurement": "inhibitory rate (%) of IL-8 production", "setting": "NAD(P)H oxidase; test compound concentration 1 μM", "result": 74, "unit": "%"},
      {"measurement": "mortality rate", "setting": "[1]; 1 mg/kg once a day", "result": 8, "unit": "%"},
      {"measurement": "heart weight (g/kg body weight)", "setting": "[1]; [5]", "result": "2.05* g/kg body weight"},
      {"measurement": "thickness (mm) of left ventricle", "setting": "[1]; [5]", "result": "1.17* mm"},
      {"measurement": "cumulative mortality, 2 weeks after ligation", "setting": "[1]; [6]", "result": "0/12"},
      {"measurement": "cumulative mortality, 4 weeks after ligation", "setting": "[1]; [6]", "result": "1/12"},
      {"measurement": "inhibitory rate (%)", "setting": "[2]; [7]", "result": 2.2, "unit": "%"},
      {"measurement": "chemiluminescence (×10^5 RLU/wet weight of aorta)", "setting": "[2]; [7]", "result": "9.1 ± 1.7 ×10^5 RLU/wet weight of aorta"},
      {"measurement": "inhibitory rate (%)", "setting": "[2]; [8]", "result": 1.1, "unit": "%"},
      {"measurement": "chemiluminescence (×10^5 RLU/wet weight of aorta)", "setting": "[2]; [8]", "result": "9.2 ± 1.7 ×10^5 RLU/wet weight of aorta"},
      {"measurement": "NAD(P)H oxidase inhibitory effect on aorta ring in vitro", "setting": "[2]; result in words", "result": "did not show an NAD(P)H oxidase inhibitory effect"},
      {"measurement": "inhibitory rate (%), NAD(P)H oxidase in diabetic rat aorta", "setting": "[3]; 1 mg/kg oral", "result": 76.9, "unit": "%"},
      {"measurement": "inhibitory rate (%), NAD(P)H oxidase in diabetic rat aorta", "setting": "[3]; 10 mg/kg oral", "result": 105.8, "unit": "%"},
      {"measurement": "inhibitory rate (%), NAD(P)H oxidase activity in diabetic rat aorta (Table 2)", "setting": "[3]; 10 mg/kg orally once a day for 3 days", "result": 105.8, "unit": "%"},
      {"measurement": "chemiluminescence (×10^5 RLU/wet weight of aorta)", "setting": "[3]; diabetic rat aorta, 10 mg/kg orally once a day for 3 days, mean ± standard error", "result": "3.8 ± 0.6 ×10^5 RLU/wet weight of aorta"},
      {"measurement": "MPO activity in myocyte", "setting": "[4]", "result": 128, "unit": "%*"}
    ]}
  ]
}
